This is an account of results in US20210363110A1, “4-METHYLDIHYDROPYRIMIDINONE COMPOUNDS AND PHARMACEUTICAL USE THEREOF” (Japan Tobacco Inc., priority 2018, published 2021).

In brackets after ≈: the same amount, converted by molar mass. Read-outs that look alike come from different tables or passages of the source. Bounds are passed on as bounds.

In one series the target is T1, human RORγ (Homo sapiens, UniProt P51449).
T1 construct: from Ser253 to Lys518 for human RORγ; expressed in transfected cells; host or cells: CHO cells (transient co-transfection with pG5-Luc)
T1 sequence (P51449 253-518): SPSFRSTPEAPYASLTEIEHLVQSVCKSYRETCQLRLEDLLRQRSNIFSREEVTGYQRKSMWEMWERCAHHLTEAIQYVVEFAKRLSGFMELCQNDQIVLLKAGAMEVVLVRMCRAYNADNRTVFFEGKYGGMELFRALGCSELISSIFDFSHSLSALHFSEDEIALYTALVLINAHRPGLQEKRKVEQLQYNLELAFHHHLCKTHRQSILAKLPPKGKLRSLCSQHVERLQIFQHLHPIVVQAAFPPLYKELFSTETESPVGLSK
The experiment in a line: Reporter gene assay for inhibitory effect against RORγ transcriptional activity (GAL4-hRORγ LBD, luciferase, CHO cells). The class given is cell-based. As to conditions: pFA/hRORγ + pG5-Luc, 2 days incubation. The protocol: Inhibitory effect against RORγ transcriptional activity was assessed by reporter gene assay for test compounds.
cDNAs encoding human and mouse RORγ ligand binding domains (LBD) were obtained based on the sequences of human RORγ (Genbank registered number NM_005060.3) and mouse RORγ (Genbank registered number NM_011281.2) (LBD sequences: from Ser253 to Lys518 for human RORγ; from Ile251 to Lys516 for mouse RORγ).
LBD cDNAs of human and mouse RORγ were inserted into pFA-CMV vector (Agilent Technologies, Inc.), which expresses GAL4-DNA binding domain fusion protein. The resulting plasmids are hereinafter referred to as pFA/hRORγ plasmid and pFA/mRORγ plasmid, respectively. […]
Cell viability was tested by luminescence method with CellTiter-Glo (Promega). […] Ten minutes after the addition, luminescence was measured for each well with a microplate reader. The luminescence count in the cells treated with 0.2% DMSO alone was defined as 100%, and the cell viability after treatment with the test compound was calculated as a percentage (%-of-control) based on the value of 0.2% DMSO alone. When the cell viability was 70% or less, a test compound was assessed to have cytotoxicity.
RORγ transcriptional activity was detected as the intracellular luciferase activity using SteadyLite HTS Reporter Gene Assay System (Perkin Elmer). […]

Series [1] in a line: Metabolic stability in liver microsomes, rat. As to conditions: residual ratio of unreacted substance, 0.2 mg/mL microsomes, NADPH generating system. The class given is in vitro ADME. The method, then:
A test solution was prepared by diluting 10 mM DMSO solution of a test substance with acetonitrile by 100 times.
Human and animal liver microsomes (SEKISUI XENOTECH; Human (H2610), Rat (R1000), Mouse (M1000), Monkey (P2000), Dog (D1000)) were adjusted with potassium phosphate buffer (pH 7.4) to 0.2 mg/mL in the reaction system. Then, 1% of the solution of a test substance prepared was added to the reaction system. Thereto was added an NADPH generating system (prepared according to the method of Non Patent Literature 28), and the metabolic reaction was initiated. At a designated time, 0.1% formic acid-acetonitrile/water (3:1) was added thereto, and the reaction was terminated.
The sample after termination of the reaction was separated by centrifugation (1400 g, 20 min.), and then the supernatant was measured by LC/MS (UPLC-SQD (waters)) to calculate a residual ratio of unreacted substances.

Series [2] can be described thus: Measurement of solubility (JP1, JP2, FaSSIF, FeSSIF). It counts as physicochemical. The following applies: thermodynamic from solid, shaken 4 hours. The method, then:
A 10 mM DMSO solution (10 μL) of test substance was added to a 96-well plate, and the mixture was concentrated and dried with a centrifugal evaporator (Genevac HT-4X). 200 μL of each solvent (JP1, JP2, FaSSIF, FeSSIF) (see Non Patent Literatures 29 and 30) was added to the well after evaporation. The mixture was shaken at room temperature at 2500 rpm for 4 hours. Then, the mixture was filtered in two parts with MultiScreen PCF filter (MERCK Millipore; MSSLBPC) to give samples (50 and 100 μL). 40 μL was collected from the sample obtained in the second filtration, and thereto was added acetonitrile (300 μL). After centrifugation (4000 g, 5 min.) of the mixture, a part of the supernatant was measured by LC-UV/MS (UPLC-Premier (waters)).

[3] abbreviates: pH 1.2, simulated gastric fluid, JP1, room temperature, read-out: Solubility JP1.
Where [4] appears, read: pH 6.8, aqueous buffer, JP2, room temperature, read-out: Solubility JP2.
[5] abbreviates: FaSSIF, room temperature, read-out: Solubility FaSSIF.
[6] abbreviates: FeSSIF, room temperature, read-out: Solubility FeSSIF.

Consider `CC[C@H](C)C1=CN(C23CC(C(=O)O)(C2)C3)C(=O)N[C@@]1(C)c1ccc([C@@H]2C[C@H]2C(C)(C)C)c(Cl)c1` [Compound (2), 3-{(S)-5-((S)-sec-Butyl)-4-[4-((1R,2R)-2-tert-butyl-cyclopropyl)-3-chloro-phenyl]-4-methyl-2-oxo-3,4-dihydro-2H-pyrimidin-1-yl}bicyclo[1.1.1]pentane-1-carboxylic acid], for which the EC50 on human RORγ is 14 nM. Further, in series [1], the “Metabolic stability in liver microsomes at 60 min., Rat” value is recorded as 95%. Besides, the solubility at 4 h was less than 0.7 µM in series [2] (setting [3]), 447 µM (≈ 217 µg/mL) in series [2] (setting [4]), 445 µM (≈ 216 µg/mL) in series [2] (setting [5]) and 463 µM (≈ 225 µg/mL) in series [2] (setting [6]).
Consider `CC(C)C1=CN(C23CC(C(=O)O)(C2)C3)C(=O)N[C@@]1(C)c1ccc([C@@H]2C[C@H]2C(C)(C)C)c(Cl)c1` [Compound (1), 3-{(S)-4-[4-((1R,2R)-2-tert-Butyl-cyclopropyl)-3-chloro-phenyl]-5-isopropyl-4-methyl-2-oxo-3,4-dihydro-2H-pyrimidin-1-yl}bicyclo[1.1.1]pentane-1-carboxylic acid], for which the EC50 at human RORγ is 23 nM. In series [1], the “Metabolic stability in liver microsomes at 60 min., Rat” value amounted to 103%. In addition, the solubility at 4 h in series [2] (setting [3]) is less than 0.8 µM; in series [2] (setting [4]), 451 µM (≈ 212 µg/mL); in series [2] (setting [5]) it was 470 µM (≈ 221 µg/mL); in series [2] (setting [6]), no less than 475 µM.

The term EC50 denotes the concentration that produces a half-maximal response. By solubility is commonly meant the concentration that dissolves in the medium under given conditions.
